Measurements: patent publication US20230372313A1, “METHODS FOR REDUCING GLYCOSPHINGOLIPID CONCENTRATION IN BRAIN TISSUE AND METHODS OF TREATMENT OF NEURODEGENERATIVE DISEASES INVOLVING THE SAME” (GENZYME CORPORATION, priority 2020, published 2023)

Columns and labels:
Assay type in all cases: in vivo, human
[1] = system: participants with early-stage PD carrying a GBA mutation; assay: MDS-UPDRS (parts II and III) scores in OFF state; conditions: Combined Japan + ROW, all Compound 2 doses, N = 22, OFF state
Procedure: MDS-UPDRS (parts II [motor experiences of daily living; 13 items] and III [motor examination; 18 items]) scores are reported through Week 8. The MDS-UPDRS scale was assessed during the OFF state, with no PD medication taken for ≥12 hours prior.
The changes from baseline in MDS-UPDRS (parts II and III) scores at week 8 were assessed for participants in part 1 of the clinical study described in Example 2.

glucosylceramide (GL-1) [2] = assay: CSF glucosylceramide (GL-1) levels, pharmacodynamics
From the text: (§1) Analyses were based on all available data from participants who enrolled in part 1 of the trial and were randomised to receive either Compound 2 or placebo for up to 52 weeks for Japanese participants and 36 weeks for the ROW population. As part 1 was an exploratory, dose-escalation study, the sample size was not based on a statistical power calculation. Participants included in the primary safety analyses were those who were randomized and received at least one dose of Compound 2 or placebo. A data monitoring committee was responsible for overseeing the safety of patients and the risk/benefit ratio throughout the study. Duration of exposure to Compound 2 was different among the doses, as per the sequential cohort design, with the low- and high-dose cohorts commencing the study first and last, respectively. For pharmacokinetics, plasma parameters were calculated using noncompartmental methods, from plasma Compound 2 concentrations obtained after single dose administration. AUC0-24 and AUC0-48 were calculated using the trapezoidal method over a predefined time period of 24 hours or 48 hours, respectively. CLss/F was calculated using the following equation: CLss/F=Dose/AUCτ, where τ is the dosing interval. For pharmacodynamics, percent reduction of plasma or CSF GL-1 from baseline was calculated as (value−baseline)/baseline×100. Formal statistical testing was not conducted on MDS-UPDRS scale assessments.
(§2) In exploratory analyses, Compound 2 pharmacodynamics in plasma and CSF were assessed by mean percent change in GL-1 levels from baseline through Week 4. GL-1 levels were assessed in plasma and CSF samples collected at the day of randomisation and Week 4, with plasma GL-1 levels also assessed at Week 2.
(§3) Concentrations of GL-1 in plasma and CSF were determined using a liquid chromatography tandem mass spectrometry method. Secondary pharmacokinetic outcomes were evaluated over a 4-week period of once-daily Compound 2 dosing (Table 7).

glucosylceramide (GL-1) [3] = assay: Plasma glucosylceramide (GL-1) levels, pharmacodynamics
From the text: as §1, §2, §3

[4] = Japan, High 15 mg once daily oral, n = 3
[5] = Japan, Low 4 mg once daily oral, n = 3
[6] = Japan, Mid 8 mg once daily oral, n = 3
[7] = Japanese cohort, high-dose 15 mg
[8] = Japanese cohort, medium-dose 8 mg
[9] = ROW participants, high-dose 15 mg
[10] = ROW participants, low-dose 4 mg
[11] = ROW participants, medium-dose 8 mg
[12] = ROW, High 15 mg once daily oral, n = 4, CSF sample not collected for 1 participant
[13] = ROW, Low 4 mg once daily oral, n = 4
[14] = ROW, Mid 8 mg once daily oral, n = 5
[15] = ROW, High 15 mg once daily oral, n = 4

## CC(C)(NC(=O)O[C@@H]1CN2CCC1CC2)c1csc(-c2ccc(F)cc2)n1 [Compound 2, (S)-quinuclidin-3-yl (2-(2-(4-fluorophenyl)thiazol-4-yl)propan-2-yl)carbamate]
[1]
  MDS-UPDRS (part II + III) score, Change from baseline at week 8 (mean): −2.9
Glucosylceramide (GL-1) [2]; [4]
  CSF GL-1, Week 4 (mean): 2.770 ng/mL
  CSF GL-1, Week 4, Change from baseline (%) (mean): −72.0%
  CSF GL-1, Week 4, Change from baseline (mean): -6.663 ng/mL
Glucosylceramide (GL-1) [2]; [5]
  CSF GL-1, Week 4 (mean): 3.843 ng/mL
  CSF GL-1, Week 4, Change from baseline (%) (mean): −21.7%
  CSF GL-1, Week 4, Change from baseline (mean): -1.733 ng/mL
Glucosylceramide (GL-1) [2]; [6]
  CSF GL-1, Week 4 (mean): 3.027 ng/mL
  CSF GL-1, Week 4, Change from baseline (%) (mean): −67.0%
  CSF GL-1, Week 4, Change from baseline (mean): -5.023 ng/mL
Glucosylceramide (GL-1) [2]; [7]
  mean reduction in CSF GL-1 at Week 4: 72.0%
Glucosylceramide (GL-1) [2]; Japanese cohort, low-dose 4 mg
  mean reduction in CSF GL-1 at Week 4: 21.7%
Glucosylceramide (GL-1) [2]; [8]
  mean reduction in CSF GL-1 at Week 4: 67.0%
Glucosylceramide (GL-1) [2]; [9]
  mean reduction in CSF GL-1 at Week 4: 74.3%
Glucosylceramide (GL-1) [2]; [10]
  mean reduction in CSF GL-1 at Week 4: 41.0%
Glucosylceramide (GL-1) [2]; [11]
  mean reduction in CSF GL-1 at Week 4: 58.0%
Glucosylceramide (GL-1) [2]; [12]
  CSF GL-1, Week 4 (mean): 1.623 ng/mL
  CSF GL-1, Week 4, Change from baseline (%) (mean): −74.3%
  CSF GL-1, Week 4, Change from baseline (mean): -5.250 ng/mL
Glucosylceramide (GL-1) [2]; [13]
  CSF GL-1, Week 4 (mean): 4.315 ng/mL
  CSF GL-1, Week 4, Change from baseline (%) (mean): −41.0%
  CSF GL-1, Week 4, Change from baseline (mean): -2.433 ng/mL
Glucosylceramide (GL-1) [2]; [14]
  CSF GL-1, Week 4 (mean): 4.406 ng/mL
  CSF GL-1, Week 4, Change from baseline (%) (mean): −58.0%
  CSF GL-1, Week 4, Change from baseline (mean): -6.376 ng/mL
Glucosylceramide (GL-1) [2]; highest dose (15 mg), Japanese and ROW cohorts
  decrease in CSF GL-1 levels from baseline: 72.0%-74.3%
Glucosylceramide (GL-1) [2]; oral administration, indicated by CSF GL-1 decrease
  brain penetration: brain-penetrant on oral administration
Glucosylceramide (GL-1) [2]; over 4 weeks
  decrease of CSF GL-1 levels from baseline versus dose: dose-dependent manner
Glucosylceramide (GL-1) [3]; [4]
  Plasma GL-1, Week 2 (mean): 1.231 µg/mL
  Plasma GL-1, Week 2, Change from baseline (%) (mean): −77.2%
  Plasma GL-1, Week 2, Change from baseline (mean): -4.285 µg/mL
  Plasma GL-1, Week 4 (mean): 1.149 µg/mL
  Plasma GL-1, Week 4, Change from baseline (%) (mean): −79.3%
  Plasma GL-1, Week 4, Change from baseline (mean): -4.368 µg/mL
Glucosylceramide (GL-1) [3]; [5]
  Plasma GL-1, Week 2 (mean): 2.230 µg/mL
  Plasma GL-1, Week 2, Change from baseline (%) (mean): −63.6%
  Plasma GL-1, Week 2, Change from baseline (mean): -3.797 µg/mL
  Plasma GL-1, Week 4 (mean): 2.097 µg/mL
  Plasma GL-1, Week 4, Change from baseline (%) (mean): −66.1%
  Plasma GL-1, Week 4, Change from baseline (mean): -3.930 µg/mL
Glucosylceramide (GL-1) [3]; [6]
  Plasma GL-1, Week 2 (mean): 1.507 µg/mL
  Plasma GL-1, Week 2, Change from baseline (%) (mean): −67.5%
  Plasma GL-1, Week 2, Change from baseline (mean): -3.133 µg/mL
  Plasma GL-1, Week 4 (mean): 1.340 µg/mL
  Plasma GL-1, Week 4, Change from baseline (%) (mean): −70.7%
  Plasma GL-1, Week 4, Change from baseline (mean): -3.300 µg/mL
Glucosylceramide (GL-1) [3]; [7]
  mean reduction in plasma GL-1 at Week 4: 79.3%
Glucosylceramide (GL-1) [3]; Japanese cohort, low-dose 4 mg
  mean reduction in plasma GL-1 at Week 4: 66.1%
Glucosylceramide (GL-1) [3]; [8]
  mean reduction in plasma GL-1 at Week 4: 70.7%
Glucosylceramide (GL-1) [3]; [9]
  mean reduction in plasma GL-1 at Week 4: 77.7%
Glucosylceramide (GL-1) [3]; [10]
  mean reduction in plasma GL-1 at Week 4: 59.0%
Glucosylceramide (GL-1) [3]; [11]
  mean reduction in plasma GL-1 at Week 4: 71.0%
Glucosylceramide (GL-1) [3]; [15]
  Plasma GL-1, Week 2 (mean): 1.469 µg/mL
  Plasma GL-1, Week 2, Change from baseline (%) (mean): −73.9%
  Plasma GL-1, Week 2, Change from baseline (mean): -4.119 µg/mL
  Plasma GL-1, Week 4 (mean): 1.253 µg/mL
  Plasma GL-1, Week 4, Change from baseline (%) (mean): −77.7%
  Plasma GL-1, Week 4, Change from baseline (mean): -4.335 µg/mL
Glucosylceramide (GL-1) [3]; [13]
  Plasma GL-1, Week 2 (mean): 2.340 µg/mL
  Plasma GL-1, Week 2, Change from baseline (%) (mean): −54.3%
  Plasma GL-1, Week 2, Change from baseline (mean): -2.815 µg/mL
  Plasma GL-1, Week 4 (mean): 2.093 µg/mL
  Plasma GL-1, Week 4, Change from baseline (%) (mean): −59.0%
  Plasma GL-1, Week 4, Change from baseline (mean): -3.063 µg/mL
Glucosylceramide (GL-1) [3]; [14]
  Plasma GL-1, Week 2 (mean): 1.644 µg/mL
  Plasma GL-1, Week 2, Change from baseline (%) (mean): −69.9%
  Plasma GL-1, Week 2, Change from baseline (mean): -3.830 µg/mL
  Plasma GL-1, Week 4 (mean): 1.578 µg/mL
  Plasma GL-1, Week 4, Change from baseline (%) (mean): −71.0%
  Plasma GL-1, Week 4, Change from baseline (mean): -3.896 µg/mL
Glucosylceramide (GL-1) [3]; over 4 weeks
  decrease of plasma GL-1 levels from baseline versus dose: dose-dependent manner
